Test results taken from patent US20020081266A1, “Spray dried powders for pulmonary or nasal administration” (Norton Healthcare Ltd., priority 1999, published 2002).

How the values were obtained:
[1] = Scanning electron microscopy (SEM) particle diameter; format: physicochemical; settings: for Particle diameters by SEM: spray dried from ethanolic solution
Description: Scanning Electron Microscopy (SEM)
The scanning electron microscope used was the Hitachi S-3500N variable pressure scanning electron microscope. Samples were mounted and sputtered with gold spray for SEM.
The scanning electron microscope used was the Hitachi S-3500N variable pressure scanning electron microscope. Samples were mounted on aluminium stubs and spluttered with gold spray for SEM.

[2] = starting material
Description: Thermogravimetric Analysis (TGA)
Thermogravimetric analysis was carried out using a Mettler TG 50 linked to a Mettler MT5 balance. Data was processed using Mettler Toledo STAR software Version 5.1 with a Solaris operating system. Sample weights were between 5 and 10 mg and analysis was carried out under nitrogen purge. The scans were run from 30 to 350° C. at a heating rate of 10° C./minute. Two TGA scans were obtained for each system.

COc1ccc(C[C@@H](C)NC[C@H](O)c2ccc(O)c(NC=O)c2)cc1.COc1ccc(C[C@@H](C)NC[C@H](O)c2ccc(O)c(NC=O)c2)cc1.O=C(O)/C=C/C(=O)O [Formoterol fumarate, formoterol fumarate]
Average particle diameter by SEM ([1]; starting material, not spray dried): 0.5-5 μm | Temperature from which TGA mass loss due to degradation occurs [2]: ≥ 150 °C

CC(C)[N+]1(C)[C@@H]2CC[C@H]1CC(OC(=O)C(CO)c1ccccc1)C2.[Br-] (stereo partly shown) [Ipratropium bromide, ipratropium bromide]
Particle diameters by SEM [1]: ≥ 60 μm

salbutamol sulphate
Particle diameters by SEM [1]: < 3 μm
